{
  "source": "patent US20070048231A1",
  "about": "“Pheromone compositions and methods” (priority 2005, published 2007)",
  "key": {"[1]": {"tested_on": "sinusitis", "test": "Inhalation exposure of the inventor to androstenone released from a polyethylene bag: sinusitis signs and symptoms", "assay_type": "in vivo", "settings": "human (inventor); about 500 mg in polyethylene bag; about five to seven days of exposure, two to eight hours per day", "excerpt": "(§1) For example, increased strength was evidenced by an at least 5-10%, and more typically 10-20% increase of weight that was lifted as compared to the same exercise before exposure to the pheromone.\nTherefore, it is also contemplated that the compositions and methods presented herein may present a convenient matter to treat and/or alleviate signs and symptoms of airway inflammation. Most preferably, such inflammation may be sinusitis, asthma, and allergic airway inflammation. In yet other contemplated aspects, additional behavioral effects may be advantageously conferred by use of contemplated compositions and methods, especially including feeling of increased energy, sexual desire, and self-confidence."}, "[2]": {"tested_on": "exercise strength and stamina", "test": "Inhalation exposure of the inventor to androstenone released from a polyethylene bag: exercise strength and stamina", "assay_type": "in vivo", "settings": "human (inventor), after about five to seven days of exposure", "excerpt": "as §1\nWith respect to the effects afforded by contemplated compositions and devices, it is generally contemplated that the steroid pheromones will exert both a desirable behavioral effect as well as a desirable non-behavioral effect. […] The term “exercise strength” as used herein refers to an ability to lift a particular weight in a given exercise routine (e.g., lifting of 100 pounds on a bench press). Thus, where exercise strength is increased, heavier weights can be lifted. Most typically the increase in exercise strength is between 5 and 40%, and more typically between 10 and 25%. […] The term “exercise stamina” as used herein refers to an ability to lift a particular weight in a given exercise routine for a maximum of repeats Rmax (e.g., lifting of 100 pounds on a bench press ten times). Thus, where exercise stamina is increased, the weight can be lifted more that Rmax times. Most typically the increase in exercise strength is between 5 and 30%, and more typically between 10 and 20%."}},
  "data": [
    {"smiles": "C[C@]12CCC(=O)C[C@@H]1CC[C@@H]1[C@@H]2CC[C@]2(C)C=CC[C@@H]12", "note": "[androstenone, 5α-androst-16-en-3-one]", "values": [
      {"measurement": "signs and symptoms of a previously diagnosed sinusitis", "setting": "[1]", "value": "all signs and symptoms of a previously diagnosed sinusitis had disappeared"},
      {"measurement": "increase of weight that was lifted as compared to the same exercise before exposure (exercise strength)", "setting": "[2]; 'at least'", "value": "5-10%"},
      {"measurement": "increase of weight that was lifted as compared to the same exercise before exposure (exercise strength)", "setting": "[2]; 'more typically'", "value": "10-20%"},
      {"measurement": "increase in number of repeats per exercise (exercise stamina)", "setting": "[2]; 'most typically'", "value": "5-20%"}
    ]}
  ]
}
